{
  "source": "patent US20150119410A1",
  "about": "“BIOMARKERS OF RESPONSE TO NAE INHIBITORS” (MILLENNIUM PHARMACEUTICALS, INC., priority 2011, published 2015)",
  "assay_in_all_cases": "Cell line panel 1 viability screen",
  "format_in_all_cases": "cell-based",
  "key": {"[1]": {"tested_on": "AN3CA", "details": "AN3CA (Uterus)", "procedure": "(§1) To support clinical development and identify potential biomarkers of tumor sensitivity or resistance, two large cancer cell line panels (Panel 1, N=653 (McDermott et al. (2007) PNAS 104:19936-19941); Panel 2, N=240 (O'Day et al. (2010) Fourth AACR International Conference on Molecular Diagnostics in Cancer Therapeutic Development)) were treated with MLN4924 and cell viability data (IC50, EC50, and POC—Percentage of Control) were generated.\n(§2) Panel 1 (McDermott et al., supra). The cell lines were exposed to three MLN4924 concentrations (20 nM, 200 nM, and 2 μM) for 72 hours. Viability, i.e., cell number, was quantified by measuring fluorescence of a cell-permeant nucleic acid stain. Mean of triplicate values for each sample were taken and compared to DMSO control to calculate percentage of control. In the results, control or no activity value is given a value of about 1, sensitivity is indicated by a value less than 1, with 0 as death of the entire cell population and resistance indicated by a value greater than 1. A continuum of viability values was obtained for each concentration, so some values were selected as cut-offs for final determination of sensitivity or resistance. For example, median POC values of less than the median value of all POC's recorded in the panel (<0.34) indicated sensitivity, values of 0.34 to 0.75 indicated borderline sensitivity, values greater than the 3rd quartile of all POC's in the panel (>0.75) insensitivity or resistance. […] Final judgment of cell line as sensitive, insensitive or resistant was determined by its viability at 2 μM."}, "[2]": {"tested_on": "BxPC-3", "details": "BxPC-3 (pancreas)", "procedure": "as §1, §2"}, "[3]": {"tested_on": "CAL-33", "details": "CAL-33 (upper aerodigestive tract)", "procedure": "as §1, §2"}, "[4]": {"tested_on": "CFPAC-1", "details": "CFPAC-1 (pancreas)", "procedure": "as §1, §2"}, "[5]": {"tested_on": "COLO-205", "procedure": "as §1, §2"}, "[6]": {"tested_on": "COLO-678", "details": "COLO-678 (large_intestine)", "procedure": "as §1, §2"}, "[7]": {"tested_on": "CaR-1", "details": "CaR-1 (large_intestine)", "procedure": "as §1, §2"}, "[8]": {"tested_on": "HCC1806", "details": "HCC1806 (breast)", "procedure": "as §1, §2"}, "[9]": {"tested_on": "HCT-15", "details": "Homo sapiens; HCT-15 (intestine); 2 μM MLN4924, 72 hours; DMSO control about 1", "procedure": "as §1, §2"}, "[10]": {"tested_on": "MDA-MB-468", "details": "MDA-MB-468 (breast)", "procedure": "as §1, §2"}, "[11]": {"tested_on": "MKN1", "details": "MKN1 (Stomach)", "procedure": "as §1, §2"}, "[12]": {"tested_on": "MKN28", "details": "Homo sapiens, MKN-28; MKN28 (stomach); 2 μM MLN4924, 72 hours; DMSO control about 1", "procedure": "as §1, §2"}, "[13]": {"tested_on": "NCI-H2405", "details": "NCI-H2405 (lung)", "procedure": "as §1, §2"}, "[14]": {"tested_on": "NCl-H1703", "details": "NCl-H1703 (lung NSCLC); 2 μM MLN4924, 72 hours; DMSO control about 1", "procedure": "as §1, §2"}, "[15]": {"tested_on": "NCl-H1975", "details": "NCl-H1975 (lung); 2 μM MLN4924, 72 hours; DMSO control about 1", "procedure": "as §1, §2"}, "[16]": {"tested_on": "NCl-H630", "details": "NCl-H630 (intestine); 2 μM MLN4924, 72 hours; DMSO control about 1", "procedure": "as §1, §2"}, "[17]": {"tested_on": "NUGC-3", "details": "NUGC-3 (stomach)", "procedure": "as §1, §2"}, "[18]": {"tested_on": "RCM-1", "procedure": "as §1, §2"}, "[19]": {"tested_on": "SK-MEL-30", "details": "Homo sapiens; SK-MEL-30 (skin); 2 μM MLN4924, 72 hours; DMSO control about 1", "procedure": "as §1, §2"}, "[20]": {"tested_on": "SW 1116", "details": "Homo sapiens; SW 1116 (intestine); 2 μM MLN4924, 72 hours; DMSO control about 1", "procedure": "as §1, §2"}, "[21]": {"tested_on": "SW1417", "details": "Homo sapiens; SW1417 (intestine); 2 μM MLN4924, 72 hours; DMSO control about 1", "procedure": "as §1, §2"}, "[22]": {"tested_on": "SW620", "procedure": "as §1, §2"}, "[23]": {"tested_on": "T84", "details": "Homo sapiens; T84 (intestine); 2 μM MLN4924, 72 hours; DMSO control about 1", "procedure": "as §1, §2"}, "[24]": {"details": "Homo sapiens, 2 μM MLN4924, 72 hours, DMSO control about 1"}},
  "data": [
    {"smiles": "NS(=O)(=O)OC[C@@H]1C[C@@H](n2ccc3c(N[C@H]4CCc5ccccc54)ncnc32)C[C@@H]1O", "note": "[MLN4924, ((1S,2S,4R)-4-{4-[(1S)-2,3-dihydro-1H-inden-1-ylamino]-7H-pyrrolo[2,3-d]pyrimidin-7-yl}-2-hydroxycyclopentyl)methyl sulphamate]", "values": [
      {"measurement": "Phenotype", "setting": "[1]; FBXW7 mutant", "result": "sensitive (median POC values of less than the median value of all POC's recorded in the panel (<0.34) indicated sensitivity)"},
      {"measurement": "viability at 2 µM", "setting": "[1]; Homo sapiens, AN3-CA, 2 μM MLN4924, 72 hours, DMSO control about 1", "result": 19.4, "unit": "%"},
      {"measurement": "Phenotype", "setting": "[2]; SMAD4 mutant", "result": "insensitive (values of 0.34 to 0.75 indicated borderline sensitivity)"},
      {"measurement": "viability at 2 µM", "setting": "[2]; [24]", "result": 41.9, "unit": "%"},
      {"measurement": "Phenotype", "setting": "[3]; SMAD4 mutant", "result": "sensitive (median POC values of less than the median value of all POC's recorded in the panel (<0.34) indicated sensitivity)"},
      {"measurement": "viability at 2 µM", "setting": "[3]; [24]", "result": 14.4, "unit": "%"},
      {"measurement": "Phenotype", "setting": "[4]; SMAD4 mutant", "result": "sensitive?"},
      {"measurement": "viability at 2 µM", "setting": "[4]; [24]", "result": 28.2, "unit": "%"},
      {"measurement": "Phenotype", "setting": "[5]; COLO-205 (large_intestine), SMAD4 mutant", "result": "sensitive (median POC values of less than the median value of all POC's recorded in the panel (<0.34) indicated sensitivity)"},
      {"measurement": "viability at 2 µM", "setting": "[5]; Homo sapiens, COLO-205 (intestine), 2 μM MLN4924, 72 hours, DMSO control about 1", "result": 14.4, "unit": "%"},
      {"measurement": "Phenotype", "setting": "[6]; SMAD4 mutant", "result": "resistant (values greater than the 3rd quartile of all POC's in the panel (>0.75) insensitivity or resistance)"},
      {"measurement": "viability at 2 µM", "setting": "[6]; [24]", "result": 81.4, "unit": "%"},
      {"measurement": "Phenotype", "setting": "[7]; NF2 mutant", "result": "sensitive (median POC values of less than the median value of all POC's recorded in the panel (<0.34) indicated sensitivity)"},
      {"measurement": "viability at 2 µM", "setting": "[7]; [24]", "result": 32.4, "unit": "%"},
      {"measurement": "Phenotype", "setting": "[8]; KDM6A mutant", "result": "sensitive (median POC values of less than the median value of all POC's recorded in the panel (<0.34) indicated sensitivity)"},
      {"measurement": "viability at 2 µM", "setting": "[8]; [24]", "result": 1.16, "unit": "%"},
      {"measurement": "viability at 2 µM", "setting": "[9]", "result": 66.5, "unit": "%"},
      {"measurement": "viability at 2 µM", "setting": "[10]; [24]", "result": 29.6, "unit": "%"},
      {"measurement": "Phenotype", "setting": "[10]; SMAD4 mutant", "result": "sensitive (median POC values of less than the median value of all POC's recorded in the panel (<0.34) indicated sensitivity)"},
      {"measurement": "viability at 2 µM", "setting": "[11]; Homo sapiens, MKN-1, 2 μM MLN4924, 72 hours, DMSO control about 1", "result": 46.3, "unit": "%"},
      {"measurement": "Phenotype", "setting": "[11]; FBXW7 mutant", "result": "insensitive (values of 0.34 to 0.75 indicated borderline sensitivity)"},
      {"measurement": "viability at 2 µM", "setting": "[12]", "result": 28.5, "unit": "%"},
      {"measurement": "viability at 2 µM", "setting": "[13]; [24]", "result": 25.5, "unit": "%"},
      {"measurement": "Phenotype", "setting": "[13]; SMAD4 mutant", "result": "sensitive (median POC values of less than the median value of all POC's recorded in the panel (<0.34) indicated sensitivity)"},
      {"measurement": "viability at 2 µM", "setting": "[14]", "result": 11, "unit": "%"},
      {"measurement": "viability at 2 µM", "setting": "[15]", "result": 30.5, "unit": "%"},
      {"measurement": "viability at 2 µM", "setting": "[16]", "result": 75, "unit": "%"},
      {"measurement": "viability at 2 µM", "setting": "[17]; [24]", "result": 9.8, "unit": "%"},
      {"measurement": "Phenotype", "setting": "[17]; NF2 mutant", "result": "sensitive (median POC values of less than the median value of all POC's recorded in the panel (<0.34) indicated sensitivity)"},
      {"measurement": "viability at 2 µM", "setting": "[18]; Homo sapiens, RCM-1 (intestine), 2 μM MLN4924, 72 hours, DMSO control about 1", "result": 76.7, "unit": "%"},
      {"measurement": "Phenotype", "setting": "[18]; RCM-1 (Intestine), FBXW7 mutant", "result": "resistant (values greater than the 3rd quartile of all POC's in the panel (>0.75) insensitivity or resistance)"},
      {"measurement": "viability at 2 µM", "setting": "[19]", "result": 77.3, "unit": "%"},
      {"measurement": "viability at 2 µM", "setting": "[20]", "result": 116, "unit": "%"},
      {"measurement": "viability at 2 µM", "setting": "[21]", "result": 63.7, "unit": "%"},
      {"measurement": "viability at 2 µM", "setting": "[22]; Homo sapiens, SW-620, SW620 (intestine), 2 μM MLN4924, 72 hours, DMSO control about 1", "result": 49.3, "unit": "%"},
      {"measurement": "Phenotype", "setting": "[22]; SW620 (large_intestine), SMAD4 mutant", "result": "insensitive (values of 0.34 to 0.75 indicated borderline sensitivity)"},
      {"measurement": "viability at 2 µM", "setting": "[23]", "result": 57.8, "unit": "%"}
    ]}
  ]
}
